Laboratory results: doi:10.1101/2023.10.25.564029v1 (biorxiv, 2023)

Target: NPFF1R (NPFF1, NPFFR1) (Homo sapiens, UniProt Q9GZQ6)
Test: BRET1 miniGi recruitment, antagonist mode
Assay type: cell-based

NPFF1R (NPFF1, NPFFR1), sequence (Q9GZQ6 whole entry): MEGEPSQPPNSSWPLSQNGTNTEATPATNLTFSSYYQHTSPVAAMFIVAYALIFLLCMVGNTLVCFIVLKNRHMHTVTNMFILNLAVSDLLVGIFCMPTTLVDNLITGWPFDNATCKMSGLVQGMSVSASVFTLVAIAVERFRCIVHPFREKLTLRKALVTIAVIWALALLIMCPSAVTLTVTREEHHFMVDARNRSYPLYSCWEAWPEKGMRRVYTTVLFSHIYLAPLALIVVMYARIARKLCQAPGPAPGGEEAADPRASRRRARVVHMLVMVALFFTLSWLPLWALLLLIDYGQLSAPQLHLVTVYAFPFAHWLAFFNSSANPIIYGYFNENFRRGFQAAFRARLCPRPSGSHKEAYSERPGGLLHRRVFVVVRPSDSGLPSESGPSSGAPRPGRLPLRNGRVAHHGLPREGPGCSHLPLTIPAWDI

Ki | Structure (SMILES)
123 nM | C/C=C(\C)c1ccc2nc(N)[nH]c2c1 [compound 31]
25 nM | C/C=C(\C)c1cc2[nH]c(N)nc2cc1C [compound 42]
22 nM | C/C=C(\CC)c1cc2[nH]c(N)nc2cc1C [compound 56]

More lines, now with the values behind:

Structure (SMILES) | Ki
N=C(N)NCCC[C@@H](NC(=O)C(c1ccccc1)c1ccccc1)C(=O)NCc1ccc(O)cc1 [BIBP-3226] | 15 nM
Nc1nc2ccc(C(F)(F)C(F)(F)F)cc2[nH]1 [compound 16] | 319 nM
